In test [1] the test system is HCC1954. Put plainly: Viability assay, BRCA1 WT cell line HCC1954. It is filed as cell-based. To be noted: Homo sapiens, HCC1954, viability, read-out: HCC1954 rel IC50. From the text: (§1) Table 1 also indicates IC50 values in a viability assay for a non-isogenic pair of BRCA1 mutant (column 5-MDA-MB-436) and BRCA1 WT (column 6—HCC1954) cell lines. These values indicate the effect of treatment with compound on cell survival.

Test [2] concerns the target USP1-UAF1 (Homo sapiens, UniProt O94782). Put plainly: Ubiquitin Rhodamine assay of USP1-UAF1 activity. The class given is biochemical. As to the method:
Certain compounds of the disclosure were assessed for USP1-UAF1 activity in a Ubiquitin Rhodamine assay as described in Biology Example 1.

Test [3] relates to MDA-MB-436. Put plainly: Viability assay, BRCA1 mutant cell line MDA-MB-436. It is filed as cell-based. To be noted: Homo sapiens, MDA-MB-436, viability, BRCA1 mutant MDA-MB-436; read-out: MDA-MB-436 rel IC50.
Text: as §1

The subject of test [4] is monoubiquitinated PCNA. The test is described as follows: AlphaLISA assay measuring monoubiquitinated PCNA in MDA-MB-436. To be noted: Homo sapiens, MDA-MB-436, monoubiquitinated PCNA, read-out: Alpha Lisa IC50. The class given is cell-based. From the text:
Table 1 also indicates IC50 values for exemplary compounds in an AlphaLISA assay measuring monoubiquitinated PCNA in a BRCA1 mutant cell line (MDA-MB-436; column 7).
(Bead proximity is the source of the signal in Alpha formats.)

Where only a bound is given, the exact number is not on record here.

Chain of USP1-UAF1 (O94782 whole entry): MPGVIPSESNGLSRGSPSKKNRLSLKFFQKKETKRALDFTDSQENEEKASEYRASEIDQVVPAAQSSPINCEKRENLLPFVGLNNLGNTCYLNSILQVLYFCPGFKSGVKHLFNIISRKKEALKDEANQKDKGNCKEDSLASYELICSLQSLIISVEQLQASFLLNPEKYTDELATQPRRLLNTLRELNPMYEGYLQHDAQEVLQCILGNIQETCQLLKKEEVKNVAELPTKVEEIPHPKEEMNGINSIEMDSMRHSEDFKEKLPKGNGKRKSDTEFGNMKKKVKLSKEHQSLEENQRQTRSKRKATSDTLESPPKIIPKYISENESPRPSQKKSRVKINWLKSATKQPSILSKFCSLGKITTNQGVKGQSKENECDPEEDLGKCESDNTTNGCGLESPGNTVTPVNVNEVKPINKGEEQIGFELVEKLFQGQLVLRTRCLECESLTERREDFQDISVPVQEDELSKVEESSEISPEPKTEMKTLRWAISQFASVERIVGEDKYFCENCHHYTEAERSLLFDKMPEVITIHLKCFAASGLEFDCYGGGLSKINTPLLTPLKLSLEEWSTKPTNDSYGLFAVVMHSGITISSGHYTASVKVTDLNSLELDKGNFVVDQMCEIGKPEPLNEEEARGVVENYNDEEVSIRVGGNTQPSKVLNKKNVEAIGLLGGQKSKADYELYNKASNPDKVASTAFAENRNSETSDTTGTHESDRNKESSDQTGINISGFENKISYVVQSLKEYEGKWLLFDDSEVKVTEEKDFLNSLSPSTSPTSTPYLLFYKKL
Chain of USP1-UAF1 (Q8TAF3 whole entry partner): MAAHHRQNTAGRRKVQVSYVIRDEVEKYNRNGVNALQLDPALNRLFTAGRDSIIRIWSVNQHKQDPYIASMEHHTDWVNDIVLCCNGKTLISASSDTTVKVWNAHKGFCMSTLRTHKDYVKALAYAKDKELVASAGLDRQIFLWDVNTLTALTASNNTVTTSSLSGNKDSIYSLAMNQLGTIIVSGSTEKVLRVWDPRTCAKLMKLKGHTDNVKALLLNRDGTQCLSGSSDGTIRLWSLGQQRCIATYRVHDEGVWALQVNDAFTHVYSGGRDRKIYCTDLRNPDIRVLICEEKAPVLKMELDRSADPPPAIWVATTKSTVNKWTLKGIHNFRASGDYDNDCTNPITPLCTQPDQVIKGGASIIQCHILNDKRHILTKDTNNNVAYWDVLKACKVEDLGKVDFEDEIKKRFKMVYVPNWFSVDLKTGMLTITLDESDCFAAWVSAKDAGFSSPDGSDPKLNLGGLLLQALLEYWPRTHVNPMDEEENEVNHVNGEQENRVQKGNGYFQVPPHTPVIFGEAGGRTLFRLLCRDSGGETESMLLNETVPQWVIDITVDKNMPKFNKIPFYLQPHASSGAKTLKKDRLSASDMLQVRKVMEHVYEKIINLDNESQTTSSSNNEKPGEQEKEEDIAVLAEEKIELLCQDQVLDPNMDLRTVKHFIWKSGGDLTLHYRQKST

Consider `Cn1cc(C(F)(F)F)nc1-c1ccc(Cn2c(=N)n(C)c3cnc(-c4ccccc4OC(F)(F)F)nc32)cc1` [Example T-033, 7-methyl-9-[[4-[1-methyl-4-(trifluoromethyl)imidazol-2-yl]phenyl]methyl]-2-[2-(trifluoromethoxy)phenyl]purin-8-imine], for which the IC50 – broadly, the concentration that inhibits the measured activity by half – is 250 to 10000 nM in test [1], under 30 nM in test [2], under 100 nM in test [3] and under 100 nM in test [4].

For the molecule `CN(C)c1ncccc1-c1ncc2c(n1)n(Cc1ccc(-c3nc(C(F)(F)F)cn3C)cc1)c(=N)n2C` [Example T-034], the IC50 in test [1] was at least 10000 nM; in test [2], 100 to 10000 nM; in test [3] it was 250 to 10000 nM; in test [4], 250 to 10000 nM.

Consider `CC(C)c1ccncc1-c1ncc2c(n1)n(Cc1ccc(-c3nc(C(F)(F)F)cn3C)cc1)c(=N)n2C` [Example T-035], for which the IC50 in test [1] was at least 10000 nM; in test [2], 100 to 10000 nM; in test [3], 250 to 10000 nM; in test [4] it was 250 to 10000 nM.

For `Cn1cc(C(F)(F)F)nc1-c1ccc(Cn2c(=N)n(C)c3cnc(-c4c(F)cccc4OC(F)F)nc32)cc1` [Example T-036, 2-[2-(difluoromethoxy)-6-fluoro-phenyl]-7-methyl-9-[[4-[1-methyl-4-(trifluoromethyl)imidazol-2-yl]phenyl]methyl]purin-8-imine], the IC50 in test [1] was at least 10000 nM; in test [2], under 30 nM; in test [3], under 100 nM; in test [4], under 100 nM.

For the molecule `COc1ncccc1-c1ncc2c(n1)n(Cc1ccc(-c3nc(C(F)(F)F)cn3C(C)C)cc1)c(=N)n2C` [Example T-037], the IC50 in test [1] was at least 10000 nM; in test [2], 100 to 10000 nM; in test [3], 250 to 10000 nM; in test [4] it was 250 to 10000 nM.

As for `COc1ncnc(C(F)(F)F)c1-c1ncc2c(n1)n(Cc1ccc(-c3nc(C(F)(F)F)cn3C)cc1)c(=N)n2C` [Example T-038, 2-[4-methoxy-6-(trifluoromethyl)pyrimidin-5-yl]-7-methyl-9-[[4-[1-methyl-4-(trifluoromethyl)imidazol-2-yl]phenyl]methyl]purin-8-imine], the half-maximal inhibitory concentration (IC50) in test [1] was at least 10000 nM; in test [2], 30 to 100 nM; in test [3] it was 100 to 250 nM; in test [4], under 100 nM.

As to `Cn1cc(C(F)(F)F)nc1-c1ccc(Cn2c(=N)n(C)c3cnc(-c4cc(F)ccc4OC(F)F)nc32)cc1` [Example T-039, 2-[2-(difluoromethoxy)-5-fluoro-phenyl]-7-methyl-9-[[4-[1-methyl-4-(trifluoromethyl)imidazol-2-yl]phenyl]methyl]purin-8-imine], the IC50 was at least 10000 nM in test [1], 30 to 100 nM in test [2], 250 to 10000 nM in test [3] and 250 to 10000 nM in test [4].

Regarding `Cc1cc(-c2nc(C(F)(F)F)cn2C)ccc1Cn1c(=N)n(C)c2cnc(-c3ccccc3C(C)C)nc21` [Example T-040], the IC50 in test [1] is at least 10000 nM; in test [2] it was 30 to 100 nM; in test [3], under 100 nM; in test [4], under 100 nM.

As for `COc1ncnc(C2CC2)c1-c1ncc2c(n1)n(Cc1cc(F)c(-c3nc(C(F)(F)F)cn3C)cc1F)c(=N)n2C` [Example T-044], the IC50 was at least 10000 nM in test [1], 30 to 100 nM in test [2], 250 to 10000 nM in test [3] and 100 to 250 nM in test [4].

As to `CC(C)c1ccccc1-c1ncc2c(n1)n(Cc1ccc(-c3nc(C(F)(F)F)cn3C)cc1Cl)c(=N)n2C` [Example T-047], the IC50 in test [1] is at least 10000 nM; in test [2] it was 30 to 100 nM; in test [3], 250 to 10000 nM; in test [4], 100 to 250 nM.

Consider `Cn1cc(C(F)(F)F)nc1-c1ccc(Cn2c(=N)n(CC(F)F)c3cnc(-c4ccccc4C(F)(F)F)nc32)cc1` [Example T-049], for which the IC50 was at least 10000 nM in test [1], 30 to 100 nM in test [2], 100 to 250 nM in test [3] and 250 to 10000 nM in test [4].

(Values after patent publication US20240059689A1, “PURINE DERIVATIVES AS ANTICANCER AGENTS” (Tango Therapeutics, Inc., priority 2021, published 2024).)
